These are literature values, as cited in patent EP3807270B1, “NOVEL HETEROARYL HETEROCYCLYL COMPOUNDS FOR THE TREATMENT OF AUTOIMMUNE DISEASE” (F. Hoffmann-La Roche AG, priority 2018, dated 2019).

In the data set the target is T1, hTLR7 (Homo sapiens, UniProt Q9NYK1).
T1 sequence (Q9NYK1 27-1049): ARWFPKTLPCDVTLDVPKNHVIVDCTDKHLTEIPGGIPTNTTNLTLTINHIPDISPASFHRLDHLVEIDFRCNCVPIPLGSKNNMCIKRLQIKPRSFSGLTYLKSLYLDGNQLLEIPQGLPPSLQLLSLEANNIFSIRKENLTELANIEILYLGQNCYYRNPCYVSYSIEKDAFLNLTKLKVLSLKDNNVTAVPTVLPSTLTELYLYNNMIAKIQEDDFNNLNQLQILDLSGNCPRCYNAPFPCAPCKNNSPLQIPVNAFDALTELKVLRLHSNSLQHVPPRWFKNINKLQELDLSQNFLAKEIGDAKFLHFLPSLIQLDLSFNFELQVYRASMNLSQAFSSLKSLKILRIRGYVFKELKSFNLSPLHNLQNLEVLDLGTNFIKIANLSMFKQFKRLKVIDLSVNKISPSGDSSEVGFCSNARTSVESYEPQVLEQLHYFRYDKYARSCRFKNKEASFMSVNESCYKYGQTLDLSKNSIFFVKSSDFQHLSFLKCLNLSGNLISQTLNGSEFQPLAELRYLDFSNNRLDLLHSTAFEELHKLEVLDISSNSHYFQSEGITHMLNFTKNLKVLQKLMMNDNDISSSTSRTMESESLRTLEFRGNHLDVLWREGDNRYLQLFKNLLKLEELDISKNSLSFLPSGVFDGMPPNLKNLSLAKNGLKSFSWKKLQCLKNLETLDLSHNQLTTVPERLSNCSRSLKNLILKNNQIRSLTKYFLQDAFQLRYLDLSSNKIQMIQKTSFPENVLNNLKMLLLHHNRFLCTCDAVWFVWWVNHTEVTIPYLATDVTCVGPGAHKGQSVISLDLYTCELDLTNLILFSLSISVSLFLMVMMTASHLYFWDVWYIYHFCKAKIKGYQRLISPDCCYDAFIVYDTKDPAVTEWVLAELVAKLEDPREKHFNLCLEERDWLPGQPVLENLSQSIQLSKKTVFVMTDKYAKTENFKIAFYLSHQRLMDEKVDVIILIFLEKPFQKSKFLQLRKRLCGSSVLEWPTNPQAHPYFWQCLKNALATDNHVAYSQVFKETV
On the set-up: host or cells: HEK. Particulars: data disclosed in US20150105370; read-out: HEK/hTLR7 IC50; cited from earlier work.

The structures appear in SMILES notation.

Regarding `C[C@@H]1CN(c2ccc(C#N)c3ncccc23)C[C@H](CN2CCN(c3ccncc3)CC2)O1` [ER-888286, reference compound], the IC50 was 1.37 µM.
